Laboratory results published in PubChem BioAssay AID256 (DTP/NCI, 2004).
Several values for one entry are separate records, joined by “and”; a condition that tells them apart may be missing. Equal entries are not always repeated. Inconclusive results and toxic doses are left out. Non-standard residues stand in square brackets, D forms with d. Residues, ends and D or L forms follow the SMILES beside them. ξ: configuration not given here. *: point of attachment. ξV = CC(C)C(N)C(=O)O; ClAc = O=C(CCl)*

Test system: CD2F1 mice, L1210 leukemia ip, survival T/C
Assay: NCI In Vivo Anticancer Drug Screen. Data for tumor model L1210 Leukemia (intraperitoneal) in CD2F1 (CDF1) mice
Details: endpoint: mean survival time, higher = longer survival
In short: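 Implant tumor; dose compound or vehicle; measure endpoint in both groups; report treated divided by control.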

[1] = dose: 6.25 mg/kg/injection, schedule: Q01DX009 (ip), vehicle: saline with Tween-80
[2] = dose: 12.5 mg/kg/injection, schedule: Q01DX009 (ip), vehicle: saline with Tween-80
[3] = dose: 25.0 mg/kg/injection, schedule: Q01DX009 (ip), vehicle: saline with Tween-80
[4] = dose: 50.0 mg/kg/injection, schedule: Q01DX009 (ip), vehicle: saline with Tween-80
[5] = dose: 100.0 mg/kg/injection, schedule: Q01DX009 (ip), vehicle: saline with Tween-80
[6] = dose: 25.0 mg/kg/injection, schedule: Q04DX003 (ip), vehicle: saline with Tween-80
[7] = dose: 100.0 mg/kg/injection, schedule: Q04DX003 (ip), vehicle: saline with Tween-80
[8] = dose: 200.0 mg/kg/injection, schedule: Q01DX009 (ip), vehicle: saline with Tween-80
[9] = dose: 100.0 mg/kg/injection, schedule: Q04DX003 (ip), vehicle: saline
[10] = dose: 200.0 mg/kg/injection, schedule: Q04DX003 (ip), vehicle: saline
[11] = dose: 100.0 mg/kg/injection, schedule: Q01DX009 (ip), vehicle: saline

COc1cc(OC)c(NC(=O)ON2C(=O)c3ccccc3C2=O)cc1Cl
T/C (dose: 0.19 mg/kg/injection, schedule: Q01DX009 (ip), vehicle: saline with Tween-80): 97 % of control | T/C (dose: 0.39 mg/kg/injection, schedule: Q01DX009 (ip), vehicle: saline with Tween-80): 94 % of control | T/C (dose: 0.78 mg/kg/injection, schedule: Q01DX009 (ip), vehicle: saline with Tween-80): 100 % of control | T/C (dose: 1.56 mg/kg/injection, schedule: Q01DX009 (ip), vehicle: saline with Tween-80): 97 % of control | T/C (dose: 3.12 mg/kg/injection, schedule: Q01DX009 (ip), vehicle: saline with Tween-80): 116 % of control and 96 % of control | T/C [1]: 100 % of control | T/C [2]: 103 % of control | T/C [3]: 103 % of control | T/C [4]: 101 % of control | T/C [5]: 103 % of control

COc1ccccc1[As](=O)(O)CC(O)COc1ccccc1 (centres undefined)
T/C (dose: 6.25 mg/kg/injection, schedule: Q04DX003 (ip), vehicle: saline with Tween-80): 103 % of control | T/C (dose: 12.5 mg/kg/injection, schedule: Q04DX003 (ip), vehicle: saline with Tween-80): 104 % of control | T/C [6]: 113 % of control

COc1ccc(C(Br)C(C)Br)cc1 (centres undefined)
T/C [4]: 97 % of control | T/C [5]: 94 % of control | T/C [7]: 98 % of control | T/C [8]: 97 % of control | T/C (dose: 200.0 mg/kg/injection, schedule: Q04DX003 (ip), vehicle: saline with Tween-80): 98 % of control

Cc1c(C(=O)O)nc(CC(O)C(Cl)(Cl)Cl)[nH]c1=O (centres undefined)
T/C (dose: 25.0 mg/kg/injection, schedule: Q01DX005 (ip), vehicle: other): 106 % of control | T/C (dose: 50.0 mg/kg/injection, schedule: Q01DX005 (ip), vehicle: other): 101 % of control | T/C (dose: 100.0 mg/kg/injection, schedule: Q01DX005 (ip), vehicle: other): 101 % of control | T/C (dose: 200.0 mg/kg/injection, schedule: Q01DX005 (ip), vehicle: other): 103 % of control | T/C (dose: 400.0 mg/kg/injection, schedule: Q01DX005 (ip), vehicle: other): 95 % of control

COc1ccc2c(C)cc(C)nc2n1
T/C (dose: 75.0 mg/kg/injection, schedule: Q01DX001 (ip), vehicle: other): 95 % of control | T/C (dose: 150.0 mg/kg/injection, schedule: Q01DX001 (ip), vehicle: other): 104 % of control | T/C (dose: 300.0 mg/kg/injection, schedule: Q01DX001 (ip), vehicle: other): 104 % of control

CC(O)c1cccc([N+](=O)[O-])c1 (centres undefined)
T/C (dose: 100.0 mg/kg/injection, schedule: Q01DX001 (ip), vehicle: saline with Tween-80): 93 % of control | T/C (dose: 200.0 mg/kg/injection, schedule: Q01DX001 (ip), vehicle: saline with Tween-80): 97 % of control | T/C (dose: 400.0 mg/kg/injection, schedule: Q01DX001 (ip), vehicle: saline with Tween-80): 93 % of control

CCCCc1ccc2nc(NC(=O)OC)[nH]c2c1
T/C [1]: 107 % of control | T/C [2]: 113 % of control | T/C [5]: 166 % of control | T/C [8]: 86 % of control

O=C(NCC1CCCCO1)Nc1ccc(Cl)cc1 (centres undefined)
T/C (dose: 100.0 mg/kg/injection, schedule: Q04DX002 (ip), vehicle: saline with Tween-80): 110 % of control | T/C (dose: 200.0 mg/kg/injection, schedule: Q04DX002 (ip), vehicle: saline with Tween-80): 102 % of control | T/C (dose: 400.0 mg/kg/injection, schedule: Q04DX002 (ip), vehicle: saline with Tween-80): 94 % of control

COC1OC2COC(C)(c3ccccc3)OC2C(O)C1[NH-].COC1OC2COC(C)(c3ccccc3)OC2C(O)C1[NH-].[Cl][Pt+2][Cl] (centres undefined)
T/C (dose: 12.5 mg/kg/injection, schedule: Q04DX003 (ip), vehicle: saline): 93 % of control | T/C (dose: 25.0 mg/kg/injection, schedule: Q04DX003 (ip), vehicle: saline): 96 % of control | T/C (dose: 50.0 mg/kg/injection, schedule: Q04DX003 (ip), vehicle: saline): 96 % of control | T/C [9]: 95 % of control | T/C [10]: 102 % of control

CCOC(=O)C1CC(C(=O)OCC)C(=O)C1=O (centres undefined)
T/C [5]: 105 % of control | T/C [8]: 103 % of control | T/C (dose: 400.0 mg/kg/injection, schedule: Q01DX009 (ip), vehicle: saline with Tween-80): 97 % of control

COC(=O)c1ncn(C2OC(COC(C)=O)C(OC(C)=O)C2OC(C)=O)c1C(=O)OC (centres undefined)
T/C (dose: 12.5 mg/kg/injection, schedule: Q01DX005 (ip), vehicle: water): 87 % of control | T/C (dose: 25.0 mg/kg/injection, schedule: Q01DX005 (ip), vehicle: water): 94 % of control | T/C (dose: 50.0 mg/kg/injection, schedule: Q01DX005 (ip), vehicle: water): 90 % of control | T/C (dose: 100.0 mg/kg/injection, schedule: Q01DX005 (ip), vehicle: water): 100 % of control | T/C (dose: 200.0 mg/kg/injection, schedule: Q01DX005 (ip), vehicle: water): 96 % of control

CNc1nc(N(C)C)nc(N(C)C)n1
T/C (dose: 6.25 mg/kg/injection, schedule: Q01DX009 (ip), vehicle: saline): 97 % of control | T/C (dose: 6.25 mg/kg/injection, schedule: Q01DX009 (ip), vehicle: water): 107 % of control | T/C (dose: 12.5 mg/kg/injection, schedule: Q01DX009 (ip), vehicle: saline): 97 % of control | T/C (dose: 12.5 mg/kg/injection, schedule: Q01DX009 (ip), vehicle: water): 104 % of control | T/C (dose: 25.0 mg/kg/injection, schedule: Q01DX009 (ip), vehicle: saline): 100 % of control | T/C (dose: 25.0 mg/kg/injection, schedule: Q01DX009 (ip), vehicle: water): 104 % of control | T/C (dose: 50.0 mg/kg/injection, schedule: Q01DX009 (ip), vehicle: saline): 101 % of control | T/C (dose: 50.0 mg/kg/injection, schedule: Q01DX009 (ip), vehicle: water): 110 % of control | T/C [11]: 111 % of control | T/C (dose: 100.0 mg/kg/injection, schedule: Q01DX009 (ip), vehicle: water): 119 % of control

COc1cc(OC)c(NC(=O)Oc2c(Cl)cccc2Cl)cc1Cl
T/C [4]: 94 % of control | T/C [5]: 97 % of control

CCOC1OC(C(O)CO)C(O)C(O)C1O (centres undefined)
T/C [9]: 101 % of control | T/C [10]: 103 % of control | T/C (dose: 400.0 mg/kg/injection, schedule: Q04DX003 (ip), vehicle: saline): 101 % of control

CC(C)C(NC(=O)CNC(=O)CCl)C(=O)O (centres undefined) (ClAc-Gly-[ξV]-OH)
T/C [3]: 92 % of control | T/C [6]: 96 % of control | T/C [4]: 97 % of control | T/C (dose: 50.0 mg/kg/injection, schedule: Q04DX003 (ip), vehicle: saline with Tween-80): 100 % of control | T/C [5]: 97 % of control | T/C [7]: 100 % of control

O=S(=O)(C(Br)CBr)C(Br)CBr (centres undefined)
T/C [7]: 95 % of control

Cc1ccc2c(ccc(CC(=S)[S-])[n+]2C)c1
T/C (dose: 6.25 mg/kg/injection, schedule: Q01DX009 (ip), vehicle: Klucel (hydroxypropylcellulose) (HPC)): 97 % of control and 107 % of control | T/C (dose: 12.5 mg/kg/injection, schedule: Q01DX009 (ip), vehicle: Klucel (hydroxypropylcellulose) (HPC)): 94 % of control and 109 % of control | T/C (dose: 25.0 mg/kg/injection, schedule: Q01DX009 (ip), vehicle: Klucel (hydroxypropylcellulose) (HPC)): 93 % of control | T/C (dose: 50.0 mg/kg/injection, schedule: Q01DX009 (ip), vehicle: Klucel (hydroxypropylcellulose) (HPC)): 91 % of control and 95 % of control | T/C (dose: 100.0 mg/kg/injection, schedule: Q01DX009 (ip), vehicle: Klucel (hydroxypropylcellulose) (HPC)): 90 % of control and 96 % of control

CCSC(C)C
T/C [11]: 101 % of control | T/C (dose: 200.0 mg/kg/injection, schedule: Q01DX009 (ip), vehicle: saline): 96 % of control | T/C (dose: 400.0 mg/kg/injection, schedule: Q01DX009 (ip), vehicle: saline): 98 % of control
